“Also recorded” adds a separate entry of the source. Where two headings read alike, the source gives them in different places.
Assays:
[1] = target: E. coli TGT C145V/T146V (Escherichia coli, UniProt P0A847, C145V/T146V); assay: Pteridine inhibition of guanine incorporation; format: biochemical; settings: C145V/T146V mutant; vs guanine; 20 μM tRNA, pH 7.3
[2] = target: E. coli TGT V217G (Escherichia coli, UniProt P0A847, V217G); assay: Pteridine inhibition of guanine incorporation; format: biochemical; settings: V217G mutant; vs guanine; 20 μM tRNA, pH 7.3
[3] = target: E. coli TGT Wild-Type (Escherichia coli, UniProt P0A847); assay: Pteridine inhibition of guanine incorporation; format: biochemical
[4] = target: E. coli TGT C145V/T146V/P147N/V217G (Escherichia coli, UniProt P0A847, C145V/P147N/T146V/V217G); assay: Pteridine inhibition of guanine incorporation; format: biochemical; settings: C145V/T146V/P147N/V217G (quadruple) mutant; vs guanine; 20 μM tRNA, pH 7.3
[5] = system: Wild-type and Mutant E. coli TGTs; assay: Pteridine inhibition of wild-type and mutant E. coli TGTs; format: biochemical; settings: the mutant enzymes
[6] = target: E. coli TGT C145V/T146V/V217G (Escherichia coli, UniProt P0A847, C145V/T146V/V217G); assay: Pteridine inhibition of guanine incorporation; format: biochemical; settings: C145V/T146V/V217G (triple) mutant; vs guanine; 20 μM tRNA, pH 7.3
[7] = system: TGT from rabbit reticulocytes; settings: cited from earlier work
[8] = target: T1, human TGT (Homo sapiens, UniProt Q9BXR0); settings: queuine as substrate, ref Chen et al. (2011) Nuc. Acids Res. 39, 2834; cited from earlier work
T1 sequence (Q9BXR0 whole entry): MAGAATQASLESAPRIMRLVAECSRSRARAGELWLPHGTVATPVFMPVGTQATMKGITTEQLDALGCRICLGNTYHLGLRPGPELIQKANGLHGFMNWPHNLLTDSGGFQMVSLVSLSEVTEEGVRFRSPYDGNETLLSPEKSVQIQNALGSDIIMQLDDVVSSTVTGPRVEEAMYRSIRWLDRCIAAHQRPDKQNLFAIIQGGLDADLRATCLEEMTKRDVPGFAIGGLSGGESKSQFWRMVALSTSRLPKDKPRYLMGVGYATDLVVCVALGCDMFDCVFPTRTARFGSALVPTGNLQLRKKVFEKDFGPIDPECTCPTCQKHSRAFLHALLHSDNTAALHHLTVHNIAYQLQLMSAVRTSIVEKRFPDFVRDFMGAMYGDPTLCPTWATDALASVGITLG
T1 sequence (Q9H974 whole entry partner): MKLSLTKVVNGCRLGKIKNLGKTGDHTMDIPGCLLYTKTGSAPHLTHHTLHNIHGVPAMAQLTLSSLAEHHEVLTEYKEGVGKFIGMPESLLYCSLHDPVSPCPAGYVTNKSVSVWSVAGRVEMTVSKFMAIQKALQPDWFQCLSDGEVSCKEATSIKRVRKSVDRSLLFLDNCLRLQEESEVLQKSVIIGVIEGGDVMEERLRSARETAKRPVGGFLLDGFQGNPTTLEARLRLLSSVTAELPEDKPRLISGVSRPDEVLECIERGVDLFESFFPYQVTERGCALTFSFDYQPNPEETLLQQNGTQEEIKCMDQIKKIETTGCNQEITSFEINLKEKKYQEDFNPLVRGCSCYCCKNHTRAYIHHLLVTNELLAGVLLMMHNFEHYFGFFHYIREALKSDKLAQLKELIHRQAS

[9] = system: E. coli TGT (C145V/T146V/V217G); assay: Queuine incorporation by the E. coli TGT triple mutant; format: biochemical; settings: queuine concentrations up to 50 μM (data not shown)
[10] = target: TGT from mouse fibroblasts; settings: cited from earlier work
[11] = target: T1, human TGT; assay: Biopterin inhibition of human TGT; format: biochemical

## Nc1nc2nccnc2c(=O)[nH]1 [Pterin, pterin]
[1]
  Ki: 2200 nM
[2]
  Ki: 900 nM
[3]; wild-type enzyme
  inhibition (in words): inhibited
[3]; wild-type enzyme, vs guanine, 20 μM tRNA, pH 7.3
  Ki: 420 nM
[4]
  Ki: 37000 nM
[5]
  inhibition (in words): inhibited
[6]
  Ki: 1300 nM
[7]; 0.48 μM pterin, rabbit reticulocyte TGT
  inhibition: 44%

## Nc1nc2[nH]cc(CN[C@H]3C=C[C@H](O)[C@@H]3O)c2c(=O)[nH]1 [Queuine, queuine]
[8]
  Km: 0.26 µM
  kcat: 8.2 (±0.2) 10^−3•s^−1
[9]
  incorporation of queuine as a substrate: does not recognize; also recorded: no incorporation

## biopterin
[10]
  Ki: ~1000 nM
[3]; biopterin concentrations up to 3 mM
  inhibition of wild-type TGT: no detectable inhibition
[11]
  Ki relative to the KM for queuine: ca. 30 fold
[11]; with respect to queuine, Dixon and Cornish-Bowden plots
  mode of inhibition: competitive inhibitor
[5]
  inhibition (in words): inhibited
[7]; 20 μM biopterin, rabbit reticulocyte enzyme
  inhibition: 39%

— PMC3124622 (Biochemical and biophysical research communications, 2011)
